Reference: patent US6998383B2, “Inhibitors of receptor activator of NF-κB and uses thereof” (Research Development Corporation, priority 2001, dated 2006)

What was measured:
RAW264.7 cells = test: RANKL-mediated osteoclast differentiation in RAW264.7 cells (TRAP staining); type: cell-based, mouse
Method: RAW264.7 cells were plated in 12-well plates and stimulated with RANKL (30 ng/ml) for 4 days. Cells were stained for TRAP essentially as described below. Photographs were taken using a 10× objective lens.
RAW cells were plated as described in FIG. 2A and treated with RANKL in the presence of 1, 30, or 100 μM of peptides as indicated. On day 4 cells were stained and evaluated as in FIG. 2A.
RAW264.7 cells were plated in 48-well plates in triplicate and treated with RANKL in the presence of increasing amounts of the indicated peptides. After 4-5 days, the cells were stained for TRAP and the total numbers of osteoclasts were counted as described below.
Primary bone marrow monocytes (BM) or RAW264.7 cells were cultured in 48-well dishes at a density of 1×10^5 cells/well or 2×10^3 cells/well, and then treated with the indicated factors at the beginning of the culture and during a medium change on day 3. Osteoclast formation was assessed by counting the total number of multi-nucleated (>3 nuclei), TRAP-positive cells present per well between day 7 and 10 (BM) or on day 5 (RAW264.7) (30).
The mouse macrophage cell line RAW264.7 express the receptor activator of NF-κB on their cell surface and when stimulated with the receptor activator of NF-κB ligand differentiate into multi-nucleated, tartrate resistant acid phosphatase (TRAP) positive osteoclasts after 4-5 days (FIG. 2A). To determine whether L-T6DP-1 could inhibit RANKL-mediated osteoclast differentiation, RAW264.7 cells were co-cultured with increasing concentrations of either L-T6DP-1. or T6DP-1 and 30 ng/ml RANKL for 4 days.

IκB = IκB degradation in RANKL-treated RAW264.7 cells (anti-IκB immunoblot); type: cell-based, mouse; settings: cytoplasmic extracts of RAW264.7 cells from FIG. 4A (FIG. 4B)
Method: RAW264.7 cells were plated in 6-well plates and treated with the indicated peptides for 5 h, then treated with RANKL (10 nM) for 15 mm. Nuclear and cytoplasmic extracts were prepared and a gel mobility shift assays was performed with 8 μg of nuclear extracts as described below.
Cytoplasmic extracts (30 μg) from FIG. 4A were immunoblotted with anti-IκB as described below.
293 cells were plated at 0.6×10^6 cells/well on 6-well plates and transfected the next day as described (8). Total amount of plasmid DNA was kept constant by adding empty pCMVFLAG1 vector. Cells and the conditioned supernatants were harvested 24-36 h after transfection. Lysates were prepared as described (8). For western blot analysis, whole-cell lysates (15-30 μg) or proteins from GST-affinity precipitation were separated by 8.5% SDS-PAGE, electroblotted onto nitrocellulose membranes, and incubated with the indicated antibodies. The membranes were then developed using the enhanced chemiluminescence (ECL) system (Amersham, Chicago, Ill.).

[1] = molecular target: T1, TRAF6 binding to the RANK cytoplasmic domain (Mus musculus, UniProt P70196); test: Competitive GST-pull down assay, TRAF6 binding to RANK cytoplasmic domain; settings: 100 μM peptide, FLAG-TRAF6 293 cell extract, GST-RANK cytoplasmic domain (FIG. 4C)
T1 construct: expressed in transfected cells; host or cells: human 293 cells (TRAF lysate); The GST-RANK fusion was purified as previously described
T1 sequence (P70196 1-530): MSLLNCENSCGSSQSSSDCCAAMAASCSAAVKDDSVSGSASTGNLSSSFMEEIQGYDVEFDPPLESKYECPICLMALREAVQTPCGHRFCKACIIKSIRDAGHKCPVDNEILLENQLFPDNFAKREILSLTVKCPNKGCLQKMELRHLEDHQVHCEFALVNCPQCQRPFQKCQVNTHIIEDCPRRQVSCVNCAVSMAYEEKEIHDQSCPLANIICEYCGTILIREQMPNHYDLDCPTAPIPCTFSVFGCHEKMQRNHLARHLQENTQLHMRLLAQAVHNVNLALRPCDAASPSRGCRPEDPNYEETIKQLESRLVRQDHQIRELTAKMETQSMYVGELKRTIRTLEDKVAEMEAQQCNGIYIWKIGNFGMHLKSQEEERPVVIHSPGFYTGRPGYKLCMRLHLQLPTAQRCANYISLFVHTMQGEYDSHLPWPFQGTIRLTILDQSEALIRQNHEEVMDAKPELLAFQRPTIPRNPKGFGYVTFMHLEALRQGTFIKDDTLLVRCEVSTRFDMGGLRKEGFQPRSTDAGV
Method: Cellular extracts from human 293 cells transfected with either FLAG-TRAF2, -TRAF5, or -TRAF6 were mixed with GST or GST-RANKed in the absence or presence of 100 μM of the indicated peptides. A GST-pull down assay was performed as described below. The bound TRAFs were visualized by immunoblotting with anti-FLAG antibodies.
Equivalent amounts of GST or GST-RANK cytoplasmic domain (GST-RANKed) fusion protein attached to 20 μl of glutathione agarose beads were mixed with lysates (50 μg) from 293 cells programmed to express the epitope-tagged TRAF protein and the indicated peptides in binding buffer (20 mM TRIS, pH 8, 150 mM NaCl, 1 mM DTT, 2 mM EDTA, and 0.1% NP-40) and allowed to rotate for 1 h at 4° C. The beads were collected by centrifugation, washed three times in binding buffer, and then washed once in low-salt buffer (20 mM TRIS, pH 8, 50 mM NaCl, and 1 mM DTT). Bound proteins were eluted with addition of SDS-sample buffer and boiled. The eluted proteins were subjected to 7.5% SDS-PAGE and western blot analysis was performed with anti-FLAG antibodies.
The cytoplasmic domain of RANK interacts with many TRAF molecules, including TRAF1, 2, 3, 5, and 6 (7-9, 11, 12). While TRAF1, 2, 3, and 5 interact with the c-terminal tail of receptor activator of NF-κB, TRAF6 interacts with a membrane proximal region of the cytoplasmic domain of the receptor activator of NF-κB. […]

In the case of “L-T6DP-1: Kaposi fibroblast growth factor signal sequence hydrophobic domain attached to murine RANK peptide containing the known TRAF6 binding domain (AAVALLPAVLLALLAPRKIPTEDEYTDRPSQPST; PEPTIDE Peptide L-T6Bp-1)”, the RANKL-mediated osteoclast differentiation (RAW264.7 cells; 30 ng/ml RANKL, 4 days, 1, 30 or 100 μM peptide (FIG. 2B)) is reported as “dose-dependent inhibition”, the multi-nucleated osteoclasts (RAW264.7 cells; RANKL, 100 μM peptide, cells still TRAP positive (FIG. 2B)) is reported as “multi-nucleated osteoclast were not observed” and the “number of TRAP positive osteoclasts” value (RAW264.7 cells; RANKL, increasing amounts of peptide, 4-5 days (FIG. 2C)) is reported as “dose-dependent decrease”. For the same substance, the IκB degradation (IκB) was “inhibition” and the “TRAF6 interaction with the cytoplasmic domain of RANK” value [1] was “inhibited”.
